Results taken from paper PMC3292467, “Comparison between ^68Ga-bombesin (^68Ga-BZH3) and the cRGD tetramer ^68Ga-RGD4 studies in an experimental nude rat model with a neuroendocrine pancreatic tumor cell line” (EJNMMI Research, 2011).
Read-outs that look alike come from different tables or passages of the source.

How the values were obtained:
ανβ3 = ανβ3 (Homo sapiens, UniProt P05106+P06756); test: biochemical
AR42J tumor [1] = conditions: AR42J tumor-bearing nude rats, n = 5 (BZH3), n = 4 (RGD4); for VB (vessel density, fractional blood volume): dynamic PET 60 min, i.v.
Protocol: The AR42J cell line, derived from a rat exocrine pancreas neuroendocrine tumor, was used. Cells were obtained from the European Collection of Cell Cultures and were grown in RPMI 1640 medium supplemented with 2 mmol/L glutamine and 10% fetal calf serum. Adherent cells were dislodged with trypsin/ethylenediaminetetraacetic acid (0.02%: 0.05%, w/v). For PET-studies, 5 × 10^6 cells in 200 μl RPMI without supplements were inoculated subcutaneously in the right hind leg of Wistar rats.
The study included nine AR 42 J tumor-bearing nude rats. We grouped all rats according to PET tracers (B, ^68Ga-BZH3 and R, ^68Ga-RGD4), used in dynamic PET scanning, as noted in Table 1. Dynamic PET studies were performed for 60 min after the intravenous application of 10 to 30 MBq ^68Ga-RGD4 or 20 to 40 MBq ^68Ga-BZH3, using a 28-frame protocol (ten frames of 30 s, five frames of 60 s, five frames of 120 s, and eight frames of 300 s). Two animals can be examined in parallel per scanning by a homemade injector (Figure 2). A dedicated PET-CT system (Biograph™ mCT, 128 S/X, Siemens Co, Erlangen, Germany) with an axial field of view of 21.6 cm with TrueV, operated in a three-dimensional mode, was used for all animal studies. The system provides the simultaneous acquisition of 369 transverse slices with a slice thickness of 0.6 mm. The animals were positioned in the axial plane of the system to maintain the best resolution in the center of the system. All PET images were attenuation-corrected and an image matrix of 400 × 400 pixels was used for iterative image reconstruction (voxel size 1.565 × 1.565 × 0.6 mm) based on the syngo MI PET/CT 2009C software version. After the end of the dynamic series an ultrahigh resolution CT with 85 mA, 80 kV and a pitch of 0.85 cm was performed for attenuation correction of the acquired dynamic emission data. The reconstructed images were converted to SUV images based on the formula [24]: SUV = Tissue concentration (becquerel per gram)/[injected dose ([…]))/body weight (gram)]. The SUV 55 to 60 min post-injection was used for the assessment of both tracers. The SUV images were used for all further quantitative evaluations.
Dynamic PET data were evaluated using the software package PMOD (provided courtesy of PMOD Technologies Ltd., Zuerich, Switzerland). Areas with enhanced tracer uptake on transaxial, coronal, and sagittal images were evaluated visually. A volume of interest consists of several regions of interest over the target area. Irregular regions of interest were drawn manually. A detailed quantitative evaluation of tracer kinetics requires the use of compartmental modeling. A two-tissue-compartment model was used to evaluate the dynamic studies.
In animals, a partial volume correction must be applied to the data due to the small size of the input and tumor volumes of interest (VOIs). Herein, the recovery coefficient was 0.85 for a diameter of 8 mm and 0.32 for a diameter of 3 mm based on phantom measurements as well as the recent parameter settings used with the reconstruction software. For the input function the mean values of the VOI data obtained from the heart were used. We used a preprocessing tool, which allowed a fit of the input curve by a sum of up to three decaying exponentials. The learning-machine two-tissue-compartment model was used for the fitting and provided five parameters: the transport parameters for tracer into and out of the cell, K1 and k2, the parameters for phosphorylation and dephosphorylation of intracellular tracer, k3 and k4, and the fractional blood volume, also called vessel density (VB), which reflects the amount of blood in the VOI. Following compartment analysis, we calculated the global influx of tracer from the compartment data using the formula: influx = (K1 × k3)/(k2 + k3). […] The model parameters were accepted when K1 - k4 was less than 1 and VB exceeded 0. The unit for the rate constants K1 to k4 was 1/min.

[2] = 3D fused PET-CT images; male rat
Protocol: The study included nine AR 42 J tumor-bearing nude rats. We grouped all rats according to PET tracers (B, ^68Ga-BZH3 and R, ^68Ga-RGD4), used in dynamic PET scanning, as noted in Table 1. Dynamic PET studies were performed for 60 min after the intravenous application of 10 to 30 MBq ^68Ga-RGD4 or 20 to 40 MBq ^68Ga-BZH3, using a 28-frame protocol (ten frames of 30 s, five frames of 60 s, five frames of 120 s, and eight frames of 300 s). Two animals can be examined in parallel per scanning by a homemade injector (Figure 2). A dedicated PET-CT system (Biograph™ mCT, 128 S/X, Siemens Co, Erlangen, Germany) with an axial field of view of 21.6 cm with TrueV, operated in a three-dimensional mode, was used for all animal studies. The system provides the simultaneous acquisition of 369 transverse slices with a slice thickness of 0.6 mm. The animals were positioned in the axial plane of the system to maintain the best resolution in the center of the system. […] The SUV images were used for all further quantitative evaluations.
Dynamic PET data were evaluated using the software package PMOD (provided courtesy of PMOD Technologies Ltd., Zuerich, Switzerland). Areas with enhanced tracer uptake on transaxial, coronal, and sagittal images were evaluated visually. […] A detailed quantitative evaluation of tracer kinetics requires the use of compartmental modeling. […]

[3] = Dynamic PET, tumor uptake (SUV) in AR42J tumor-bearing nude rats; type: in vivo, rat; conditions: Wistar (nude), rat, tumor (AR42J), iv, i.v. 20 to 40 MBq (BZH3, n = 5), 10 to 30 MBq (RGD4, n = 4), nude rats, read-out: SUV (standardized uptake value) in tumor
Description: (§1) Irregular regions of interest were drawn manually.

AR42J tumor [4] = test: as above; type: in vivo, rat; conditions: i.v. 20 to 40 MBq (BZH3, n = 5), 10 to 30 MBq (RGD4, n = 4), nude rats
Description: as §1

[5] = median, between tracers P 0.05*

Sequence of ανβ3 (P06756 31-889 limits assumed): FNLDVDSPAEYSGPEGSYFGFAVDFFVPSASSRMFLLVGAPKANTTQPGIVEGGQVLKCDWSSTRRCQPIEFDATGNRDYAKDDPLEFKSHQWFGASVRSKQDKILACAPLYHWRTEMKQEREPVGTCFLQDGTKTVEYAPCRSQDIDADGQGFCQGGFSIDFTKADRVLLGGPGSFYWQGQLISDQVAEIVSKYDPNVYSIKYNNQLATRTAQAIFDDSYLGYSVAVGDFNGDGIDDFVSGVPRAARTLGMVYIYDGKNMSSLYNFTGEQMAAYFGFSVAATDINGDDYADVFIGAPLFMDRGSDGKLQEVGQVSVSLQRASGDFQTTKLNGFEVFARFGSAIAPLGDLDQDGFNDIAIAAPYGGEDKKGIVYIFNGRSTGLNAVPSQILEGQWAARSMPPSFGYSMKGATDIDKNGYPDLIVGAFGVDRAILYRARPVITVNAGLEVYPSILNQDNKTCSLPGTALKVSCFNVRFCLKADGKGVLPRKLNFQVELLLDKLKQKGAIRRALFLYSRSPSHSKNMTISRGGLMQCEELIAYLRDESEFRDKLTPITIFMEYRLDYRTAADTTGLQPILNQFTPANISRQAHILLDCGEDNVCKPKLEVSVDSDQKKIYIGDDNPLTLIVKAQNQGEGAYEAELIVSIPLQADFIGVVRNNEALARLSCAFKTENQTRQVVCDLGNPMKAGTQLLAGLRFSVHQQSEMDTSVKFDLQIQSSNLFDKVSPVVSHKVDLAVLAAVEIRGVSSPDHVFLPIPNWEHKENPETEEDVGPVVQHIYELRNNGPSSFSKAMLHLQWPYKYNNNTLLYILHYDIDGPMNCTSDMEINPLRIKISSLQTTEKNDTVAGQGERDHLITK
Sequence of ανβ3 (P06756 891-1048 partner limits assumed): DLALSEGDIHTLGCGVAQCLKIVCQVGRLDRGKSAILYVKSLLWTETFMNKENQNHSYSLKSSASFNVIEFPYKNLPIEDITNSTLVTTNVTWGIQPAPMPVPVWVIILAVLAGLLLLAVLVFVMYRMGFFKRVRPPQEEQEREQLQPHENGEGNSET
Sequence of ανβ3 (P05106 27-788): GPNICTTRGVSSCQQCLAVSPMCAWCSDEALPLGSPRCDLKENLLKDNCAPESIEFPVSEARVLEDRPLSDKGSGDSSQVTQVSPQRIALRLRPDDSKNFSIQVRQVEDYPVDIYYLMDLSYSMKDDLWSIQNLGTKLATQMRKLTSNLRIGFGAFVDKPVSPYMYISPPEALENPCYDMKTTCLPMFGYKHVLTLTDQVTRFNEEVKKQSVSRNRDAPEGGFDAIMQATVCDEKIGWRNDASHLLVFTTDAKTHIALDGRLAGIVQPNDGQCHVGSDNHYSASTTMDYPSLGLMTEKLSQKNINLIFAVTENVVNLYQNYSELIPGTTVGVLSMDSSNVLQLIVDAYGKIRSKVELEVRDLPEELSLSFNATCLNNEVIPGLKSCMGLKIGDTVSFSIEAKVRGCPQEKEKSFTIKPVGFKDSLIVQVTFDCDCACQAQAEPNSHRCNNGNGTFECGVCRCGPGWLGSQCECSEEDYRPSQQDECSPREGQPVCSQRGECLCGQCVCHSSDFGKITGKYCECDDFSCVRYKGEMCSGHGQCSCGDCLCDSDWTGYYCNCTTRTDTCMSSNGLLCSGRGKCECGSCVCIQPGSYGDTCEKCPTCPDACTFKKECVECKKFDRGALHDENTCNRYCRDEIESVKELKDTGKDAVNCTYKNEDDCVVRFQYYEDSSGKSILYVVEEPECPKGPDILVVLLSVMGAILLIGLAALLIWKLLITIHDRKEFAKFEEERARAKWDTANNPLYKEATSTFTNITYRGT

N=C(N)NCCC[C@@H]1NC(=O)[C@H](CCCCNC(=O)COCCOCCNC(=O)CSC2CC(=O)N(CCCC(=O)NCCCC[C@H](NC(=O)CCCN3C(=O)CC(SCC(=O)NCCOCCOCC(=O)NCCCC[C@@H]4NC(=O)[C@@H](Cc5ccccc5)NC(=O)[C@H](CC(=O)O)NC(=O)CNC(=O)[C@H](CCCNC(=N)N)NC4=O)C3=O)C(=O)NCCCC[C@H](NC(=O)[C@H](CCCCNC(=O)CCCN3C(=O)CC(SCC(=O)NCCOCCOCC(=O)NCCCC[C@@H]4NC(=O)[C@@H](Cc5ccccc5)NC(=O)[C@H](CC(=O)O)NC(=O)CNC(=O)[C@H](CCCNC(=N)N)NC4=O)C3=O)NC(=O)CCCN3C(=O)CC(SCC(=O)NCCOCCOCC(=O)NCCCC[C@@H]4NC(=O)[C@@H](Cc5ccccc5)NC(=O)[C@H](CC(=O)O)NC(=O)CNC(=O)[C@H](CCCNC(=N)N)NC4=O)C3=O)C(=O)N[C@@H](CCCCNC(=O)CN3CCN(CC(=O)O)CCN(CC(=O)O)CCN(CC(=O)O)CC3)C(N)=O)C2=O)NC(=O)[C@@H](Cc2ccccc2)NC(=O)[C@H](CC(=O)O)NC(=O)CNC1=O (stereo partly shown) [^68Ga-RGD4, metal not drawn]
IC50 (ανβ3): 4.97 µM
VB (vessel density, fractional blood volume) (AR42J tumor [1]; maximum): 0.0713
K1 (transport into the cell; associated with receptor binding) (AR42J tumor [1]; maximum): 0.3195 min⁻¹
RBP (receptor binding potential) (AR42J tumor [1]; maximum): 0.0514
k2 (displacement from the receptor) (AR42J tumor [1]; maximum): 0.6152 min⁻¹
k3 (cellular internalisation) (AR42J tumor [1]; maximum): 0.1352 min⁻¹
k4 (externalization) (AR42J tumor [1]; maximum): 0.0504 min⁻¹
VB (vessel density, fractional blood volume) (AR42J tumor [1]; mean): 0.0582
K1 (transport into the cell; associated with receptor binding) (AR42J tumor [1]; mean): 0.2739 min⁻¹
RBP (receptor binding potential) (AR42J tumor [1]; mean): 0.0453
k2 (displacement from the receptor) (AR42J tumor [1]; mean): 0.5386 min⁻¹
k3 (cellular internalisation) (AR42J tumor [1]; mean): 0.1097 min⁻¹
k4 (externalization) (AR42J tumor [1]; mean): 0.0443 min⁻¹
VB (vessel density, fractional blood volume) (AR42J tumor [1]; [5]): 0.0574
RBP (receptor binding potential) (AR42J tumor [1]; median, between tracers P 0.0275*): 0.0442
K1 (transport into the cell; associated with receptor binding) (AR42J tumor [1]; [5]): 0.2728 min⁻¹
k4 (externalization) (AR42J tumor [1]; [5]): 0.0442 min⁻¹
k2 (displacement from the receptor) (AR42J tumor [1]; median, between tracers P 0.4624): 0.5721 min⁻¹
k3 (cellular internalisation) (AR42J tumor [1]; median, between tracers P 0.8065): 0.1180 min⁻¹
VB (vessel density, fractional blood volume) (AR42J tumor [1]; minimum): 0.0468
K1 (transport into the cell; associated with receptor binding) (AR42J tumor [1]; minimum): 0.2304 min⁻¹
RBP (receptor binding potential) (AR42J tumor [1]; minimum): 0.0414
k2 (displacement from the receptor) (AR42J tumor [1]; minimum): 0.3952 min⁻¹
k3 (cellular internalisation) (AR42J tumor [1]; minimum): 0.0678 min⁻¹
k4 (externalization) (AR42J tumor [1]; minimum): 0.0382 min⁻¹
tracer uptake in other sites [2]: heart (exhibit for ^68Ga-RGD4), liver, kidney, urinary bladder, and testicles
SUV ([3]; mean, 55 to 60 min post-injection): 1.02 SUV
SUV ([3]; median, 55 (56) to 60 min post-injection, between tracers P 0.8065): 0.989 SUV
SUV (standardized uptake value) in tumor (AR42J tumor [4]; maximum, 55 to 60 min post-injection): 1.3084
SUV (standardized uptake value) in tumor (AR42J tumor [4]; median, 55 (56) to 60 min post-injection, between tracers P 0.8065, listed as 68Ga-RGD tetramer): 0.99
SUV (standardized uptake value) in tumor (AR42J tumor [4]; minimum, 55 to 60 min post-injection): 0.7833
